Starred links: 1 amine or outer side, 2 acyl side, 3 side chain; linkers in the order of their positions; H or OH if unused. Non-standard residues stand in square brackets, D forms with d. Residues, ends and D or L forms follow the SMILES beside them. Groups on a side chain read outwards from the residue. *: point of attachment. C20 diacid = O=C(O)CCCCCCCCCCCCCCCCCCC(=O)*; C18 diacid = O=C(O)CCCCCCCCCCCCCCCCC(=O)*; C17 diacid = O=C(O)CCCCCCCCCCCCCCCC(=O)*; γGlu = O=C(O)[C@H](CCC(=O)[*:2])N[*:1]; NMeY = CN[C@@H](Cc1ccc(O)cc1)C(=O)O; AEEA = NCCOCCOCC(=O)O; Aib = CC(C)(N)C(=O)O
Assay: physchem
Procedure, shortened: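 3 mg of peptide treated with 100 μL portions of 200 mM phosphate buffer pH 7.4, sonicating/vortexing up to 1 min, with further buffer added until fully dissolved. Solubility then quantified by HPLC.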

SMILES	solubility (pH 7.4) [mg/mL]	solubility (pH 7.4, aqueous buffer) [mg/mL]	solubility (pH 7.4, aqueous buffer, pH 7.4 Phosphate Buffer - Solubility, 200 mM Phosphate buffer pH 7.4) [mg/mL]	solubility (pH 7.4, solubility in phosphate buffer at pH 7.4, 200 mM phosphate buffer pH 7.4) [mg/mL]
CC[C@H](C)[C@H](NC(=O)[C@H](Cc1ccccc1)NC(=O)[C@@H](NC(=O)CNC(=O)[C@H](CCC(=O)O)NC(=O)C(C)(C)NC(=O)[C@@H](N)Cc1ccc(O)cc1)[C@@H](C)O)C(=O)N[C@@H](CO)C(=O)N[C@@H](CC(=O)O)C(=O)N[C@@H](Cc1ccc(O)cc1)C(=O)N[C@@H](CO)C(=O)N[C@H](C(=O)NC(C)(C)C(=O)N[C@@H](CC(C)C)C(=O)N[C@@H](CC(=O)O)C(=O)N[C@@H](CCCCN)C(=O)N[C@@H](C)C(=O)N[C@@H](C)C(=O)N[C@@H](CCC(N)=O)C(=O)N[C@@H](C)C(=O)N[C@@H](CCCCNC(=O)COCCOCCNC(=O)COCCOCCNC(=O)CC[C@H](NC(=O)CC[C@H](NC(=O)CCCCCCCCCCCCCCCCC(=O)O)C(=O)O)C(=O)O)C(=O)N[C@@H](Cc1ccccc1)C(=O)N[C@H](C(=O)N[C@@H](CCC(=O)O)C(=O)N[C@@H](Cc1c[nH]c2ccccc12)C(=O)N[C@@H](CC(C)C)C(=O)N[C@@H](CC(C)C)C(=O)N[C@@H](C)C(=O)N[C@@H](CCC(N)=O)C(=O)N[C@@H](CCCNC(=N)N)C(=O)NCC(=O)O)C(C)C)[C@@H](C)CC [Compound 168] (H-Y[Aib]EGTFISDYSI[Aib]LDKAAQAK([AEEA-AEEA-γGlu-γGlu-C18 diacid])FVEWLLAQRG-OH)	≥ 15	≥ 30		
CC[C@H](C)[C@H](NC(=O)[C@H](CO)NC(=O)[C@H](Cc1ccc(O)cc1)NC(=O)[C@H](CC(=O)O)NC(=O)[C@H](CO)NC(=O)[C@@H](NC(=O)[C@H](Cc1ccccc1)NC(=O)[C@@H](NC(=O)CNC(=O)[C@H](CCC(=O)O)NC(=O)C(C)(C)NC(=O)[C@H](Cc1ccc(O)cc1)NC)[C@@H](C)O)[C@@H](C)CC)C(=O)N[C@@H](C)C(=O)N[C@@H](CC(C)C)C(=O)N[C@@H](CC(=O)O)C(=O)N[C@@H](CCCNC(=N)N)C(=O)N[C@@H](CCCCNC(=O)CNC(=O)CNC(=O)CNC(=O)CNC(=O)CNC(=O)CCCCCCCCCCCCCCCCC(=O)O)C(=O)N[C@@H](C)C(=O)N[C@@H](CCC(N)=O)C(=O)NC(C)(C)C(=O)N[C@@H](CC(N)=O)C(=O)N[C@@H](Cc1ccccc1)C(=O)N[C@H](C(=O)N[C@@H](CC(N)=O)C(=O)N[C@@H](Cc1c[nH]c2ccccc12)C(=O)N[C@@H](CC(C)C)C(=O)N[C@@H](CC(C)C)C(=O)N[C@@H](C)C(=O)N[C@@H](CCC(N)=O)C(=O)N[C@@H](CO)C(=O)N1CCC[C@H]1C(=O)NCC(=O)O)C(C)C [Compound 290]		≥ 7.5		
CC[C@H](C)[C@H](NC(=O)[C@H](CO)NC(=O)[C@H](Cc1ccc(O)cc1)NC(=O)[C@H](CC(=O)O)NC(=O)[C@H](CO)NC(=O)[C@@H](NC(=O)[C@H](Cc1ccccc1)NC(=O)[C@@H](NC(=O)CNC(=O)[C@H](CCC(=O)O)NC(=O)C(C)(C)NC(=O)[C@@H](N)Cc1ccc(O)cc1)[C@@H](C)O)[C@@H](C)CC)C(=O)N[C@@H](C)C(=O)N[C@@H](CC(C)C)C(=O)N[C@@H](CC(=O)O)C(=O)N[C@@H](CCCCN)C(=O)N[C@@H](C)C(=O)N[C@@H](C)C(=O)N[C@@H](CCC(N)=O)C(=O)NC(C)(C)C(=O)N[C@@H](CCCCNC(=O)COCCOCCNC(=O)COCCOCCNC(=O)CC[C@H](NC(=O)CC[C@H](NC(=O)CCCCCCCCCCCCCCCC(=O)O)C(=O)O)C(=O)O)C(=O)N[C@@H](Cc1ccccc1)C(=O)N[C@H](C(=O)N[C@@H](CCC(=O)O)C(=O)N[C@@H](Cc1c[nH]c2ccccc12)C(=O)N[C@@H](CC(C)C)C(=O)N[C@@H](CC(C)C)C(=O)N[C@@H](C)C(=O)N[C@@H](CCC(N)=O)C(=O)N[C@@H](CCCNC(=N)N)C(=O)NCC(=O)O)C(C)C [Compound 133] (H-Y[Aib]EGTFISDYSIALDKAAQ[Aib]K([AEEA-AEEA-γGlu-γGlu-C17 diacid])FVEWLLAQRG-OH)	≥ 15	≥ 30		
CC[C@H](C)[C@H](NC(=O)[C@H](CO)NC(=O)[C@H](Cc1ccc(O)cc1)NC(=O)[C@H](CC(=O)O)NC(=O)[C@H](CO)NC(=O)[C@@H](NC(=O)[C@H](Cc1ccccc1)NC(=O)[C@@H](NC(=O)CNC(=O)[C@H](CCC(=O)O)NC(=O)C(C)(C)NC(=O)[C@@H](N)Cc1ccc(O)cc1)[C@@H](C)O)[C@@H](C)CC)C(=O)N[C@@H](C)C(=O)N[C@@H](CCCCNC(=O)CNC(=O)CNC(=O)CNC(=O)CNC(=O)CNC(=O)CCCCCCCCCCCCCCCCC(=O)O)C(=O)N[C@@H](CC(=O)O)C(=O)N[C@@H](CCCNC(=N)N)C(=O)N[C@@H](C)C(=O)N[C@@H](C)C(=O)N[C@@H](CCC(N)=O)C(=O)NC(C)(C)C(=O)N[C@@H](CC(=O)O)C(=O)N[C@@H](Cc1ccccc1)C(=O)N[C@H](C(=O)N[C@@H](CCC(=O)O)C(=O)N[C@@H](Cc1c[nH]c2ccccc12)C(=O)N[C@@H](CC(C)C)C(=O)N[C@@H](CC(C)C)C(=O)N[C@@H](C)C(=O)N[C@@H](CCC(N)=O)C(=O)N[C@@H](CCCNC(=N)N)C(=O)NCC(=O)O)C(C)C [Compound 291]		< 6		
CC[C@H](C)[C@H](NC(=O)[C@H](Cc1ccccc1)NC(=O)[C@@H](NC(=O)CNC(=O)[C@H](CCC(=O)O)NC(=O)C(C)(C)NC(=O)[C@H](Cc1ccc(O)cc1)NC)[C@@H](C)O)C(=O)N[C@@H](CO)C(=O)N[C@@H](CC(=O)O)C(=O)N[C@@H](Cc1ccc(O)cc1)C(=O)N[C@@H](CO)C(=O)N[C@H](C(=O)NC(C)(C)C(=O)N[C@@H](CC(C)C)C(=O)N[C@@H](CC(=O)O)C(=O)N[C@@H](CCCNC(=N)N)C(=O)NC(C)(C)C(=O)N[C@@H](C)C(=O)N[C@@H](CCC(N)=O)C(=O)NC(C)(C)C(=O)N[C@@H](CCCCNC(=O)COCCOCCNC(=O)COCCOCCNC(=O)CC[C@H](NC(=O)CC[C@H](NC(=O)CCCCCCCCCCCCCCCCCCC(=O)O)C(=O)O)C(=O)O)C(=O)N[C@@H](Cc1ccccc1)C(=O)N[C@H](C(=O)N[C@@H](CC(N)=O)C(=O)N[C@@H](Cc1c[nH]c2ccccc12)C(=O)N[C@@H](CC(C)C)C(=O)N[C@@H](CC(C)C)C(=O)N[C@@H](C)C(=O)N[C@@H](CCC(N)=O)C(=O)N[C@@H](CCCCN)C(=O)NCC(=O)O)C(C)C)[C@@H](C)CC [Compound 65] (H-[NMeY][Aib]EGTFISDYSI[Aib]LDR[Aib]AQ[Aib]K([AEEA-AEEA-γGlu-γGlu-C20 diacid])FVNWLLAQKG-OH)	≥ 15	≥ 30		
CC[C@H](C)[C@H](NC(=O)[C@H](CO)NC(=O)[C@H](Cc1ccc(O)cc1)NC(=O)[C@H](CC(=O)O)NC(=O)[C@H](CO)NC(=O)[C@@H](NC(=O)[C@H](Cc1ccccc1)NC(=O)[C@@H](NC(=O)CNC(=O)[C@H](CCC(=O)O)NC(=O)C(C)(C)NC(=O)[C@H](Cc1ccc(O)cc1)NC)[C@@H](C)O)[C@@H](C)CC)C(=O)N[C@@H](C)C(=O)N[C@@H](CC(C)C)C(=O)N[C@@H](CC(=O)O)C(=O)N[C@@H](CCCNC(=N)N)C(=O)NC(C)(C)C(=O)N[C@@H](C)C(=O)N[C@@H](CCC(N)=O)C(=O)NC(C)(C)C(=O)N[C@@H](CCCCNC(=O)COCCOCCNC(=O)COCCOCCNC(=O)CC[C@H](NC(=O)CC[C@H](NC(=O)CCCCCCCCCCCCCCCCC(=O)O)C(=O)O)C(=O)O)C(=O)N[C@@H](Cc1ccccc1)C(=O)N[C@H](C(=O)N[C@@H](CCC(=O)O)C(=O)N[C@@H](Cc1c[nH]c2ccccc12)C(=O)N[C@@H](CC(C)C)C(=O)N[C@@H](CC(C)C)C(=O)N[C@@H](C)C(=O)N[C@@H](CCC(N)=O)C(=O)N[C@@H](CO)C(=O)N1CCC[C@H]1C(=O)NCC(=O)O)C(C)C [Compound 119] (H-[NMeY][Aib]EGTFISDYSIALDR[Aib]AQ[Aib]K([AEEA-AEEA-γGlu-γGlu-C18 diacid])FVEWLLAQSPG-OH)	≥ 15	≥ 30		
CC[C@H](C)[C@H](NC(=O)[C@H](CO)NC(=O)[C@H](Cc1ccc(O)cc1)NC(=O)[C@H](CC(=O)O)NC(=O)[C@H](CO)NC(=O)[C@@H](NC(=O)[C@H](Cc1ccccc1)NC(=O)[C@@H](NC(=O)CNC(=O)[C@H](CCC(=O)O)NC(=O)C(C)(C)NC(=O)[C@H](Cc1ccc(O)cc1)NC)[C@@H](C)O)[C@@H](C)CC)C(=O)N[C@@H](C)C(=O)N[C@@H](CC(C)C)C(=O)N[C@@H](CC(=O)O)C(=O)N[C@@H](CCCNC(=N)N)C(=O)NC(C)(C)C(=O)N[C@@H](Cc1c[nH]cn1)C(=O)N[C@@H](CCC(N)=O)C(=O)NC(C)(C)C(=O)N[C@@H](CCCCNC(=O)COCCOCCNC(=O)COCCOCCNC(=O)CC[C@H](NC(=O)CC[C@H](NC(=O)CCCCCCCCCCCCCCCC(=O)O)C(=O)O)C(=O)O)C(=O)N[C@@H](Cc1ccccc1)C(=O)N[C@H](C(=O)N[C@@H](CC(N)=O)C(=O)N[C@@H](Cc1c[nH]c2ccccc12)C(=O)N[C@@H](CC(C)C)C(=O)N[C@@H](CC(C)C)C(=O)N[C@@H](C)C(=O)N[C@@H](CCC(N)=O)C(=O)N[C@@H](CCCNC(=N)N)C(N)=O)C(C)C [Compound 257] (H-[NMeY][Aib]EGTFISDYSIALDR[Aib]HQ[Aib]K([AEEA-AEEA-γGlu-γGlu-C17 diacid])FVNWLLAQR-NH2)		≥ 7.5		
CC[C@H](C)[C@H](NC(=O)[C@H](CO)NC(=O)[C@H](Cc1ccc(O)cc1)NC(=O)[C@H](CC(=O)O)NC(=O)[C@H](CO)NC(=O)[C@@H](NC(=O)[C@H](Cc1ccccc1)NC(=O)[C@@H](NC(=O)CNC(=O)[C@H](CCC(=O)O)NC(=O)C(C)(C)NC(=O)[C@H](Cc1ccc(O)cc1)NC)[C@@H](C)O)[C@@H](C)CC)C(=O)N[C@@H](C)C(=O)N[C@@H](CC(C)C)C(=O)N[C@@H](CC(=O)O)C(=O)N[C@@H](CCCNC(=N)N)C(=O)NC(C)(C)C(=O)N[C@@H](C)C(=O)N[C@@H](CCC(N)=O)C(=O)NC(C)(C)C(=O)N[C@@H](CC(=O)O)C(=O)N[C@@H](Cc1ccccc1)C(=O)N[C@H](C(=O)N[C@@H](CC(N)=O)C(=O)N[C@@H](Cc1c[nH]c2ccccc12)C(=O)N[C@@H](CC(C)C)C(=O)N[C@@H](CC(C)C)C(=O)N[C@@H](C)C(=O)N[C@@H](CCCCNC(=O)COCCOCCNC(=O)COCCOCCNC(=O)CC[C@H](NC(=O)CC[C@H](NC(=O)CCCCCCCCCCCCCCCCC(=O)O)C(=O)O)C(=O)O)C(=O)N[C@@H](CCCNC(=N)N)C(=O)N1CCC[C@H]1C(=O)N[C@@H](CO)C(=O)N[C@@H](CO)C(=O)NCC(=O)N[C@@H](C)C(=O)N1CCC[C@H]1C(=O)N1CCC[C@H]1C(=O)N1CCC[C@H]1C(=O)N[C@@H](CO)C(N)=O)C(C)C [Compound 58] (H-[NMeY][Aib]EGTFISDYSIALDR[Aib]AQ[Aib]DFVNWLLAK([AEEA-AEEA-γGlu-γGlu-C18 diacid])RPSSGAPPPS-NH2)			≥ 30	≥ 15

From patent US20230143604A1, “QW DOSING OF GIP RECEPTOR AGONIST PEPTIDE COMPOUNDS AND USES THEREOF” (TAKEDA PHARMACEUTICAL COMPANY LIMITED, priority 2020, published 2023)
